Experimental data taken from patent US6156754A, “Glycoconjugates of modified camptothecin derivatives (A-or B-ring linkage)” (Bayer Aktiengesellschaft, priority 1996, dated 2000).
Values after ≈ are worked out from the molar mass of the structure shown. Where a name gives a salt, the structure may show the parent alone.

How the values were obtained:
[1] = test system: HT 29; assay: Growth inhibition (MTT) test, cytotoxic action on HT 29; assay type: cell-based, human; conditions: HT 29 cell line, growth checked after day 3 and day 6
Procedure: (§1) 1. Growth Inhibition Test for the Determination of the Cytotoxic Properties
(§2) The human large intestine cell lines SW 480 and HT 29 (ATCC No. CCL 228 and HBT 38) and the mouse melanoma cell line B 16 F 10 were grown in Roux dishes in RPMI 1640 medium with addition of 10% FCS. They were then trypsinized and taken up in RPMI plus 10% FCS to a cell count of 50,000 cells/ml. 100 μl of cell suspension/well were added to a 96 microwell plate and incubated for 1 day at 37° C. in a CO2 incubator. A further 100 μl of RPMI Medium and 1 μl of DMSO containing the test substances were then added. The growth was checked after day 3 and day 6. To this end, 40 μl of MTT solution (3-(4,5-dimethylthiazol-2-yl)-2,5-diphenyl-tetrazolium bromide) having a starting concentration of 5 mg/ml of H2 O were added to each microwell. Incubation was carried out for 5 hours in a CO2 incubator at 37° C. The medium was then aspirated and 100 μl of i-propanol/well were added. After shaking for 30 min with 100 μl of H2 O, the extinction was measured at 540 nm using a Titertek Multiscan MCC/340 (Flow).
(§3) The cytotoxic action is indicated in Table 1 as the IC50 value (dose which inhibits the cell growth to 50% of the cell growth of the control) in each case for the SW 480 and HT 29 and B16F10 cell lines: […]

[2] = test system: B16F10; assay: Growth inhibition (MTT) test, cytotoxic action on B16F10; assay type: cell-based, mouse; conditions: B16F10 cell line, growth checked after day 3 and day 6
Procedure: as §1, §2, §3

[3] = test system: SW 480; assay: Growth inhibition (MTT) test, cytotoxic action on SW 480; assay type: cell-based, human; conditions: SW 480 cell line, growth checked after day 3 and day 6
Procedure: as §1, §2, §3

[4] = In vivo inhibition of tumour growth in the nude mouse model (LXFL 529 xenograft); parameters: species or system human tumour in athymic nude mice (NMRI nu/nu); conditions: mouse, in vivo, ip; nude mice, i.p. day 1, 2, 3; read-out: maximum tolerable dose (MTD)
Procedure: (§4) 3. In Vivo Inhibition of Tumour Growth in the Nude Mouse Model
(§5) For all in vivo experiments for investigation of the inhibition of tumour growth athymic nude mice (NMRI nu/nu strain) were used. The selected large-cell lung carcinoma LXFL 529 was grown by serial passage in nude mice. The human origin of the tumour was confirmed by isoenzymatic and immunohistochemical methods.
(§6) The tumour was implanted subcutaneously into both flanks of 6 to 8 week old nu/nu nude mice. The treatment was started, depending on the doubling time, as soon as the tumours had reached a diameter of 5-7 mm. The mice were assigned to the treatment group and the control group (5 mice per group with 8-10 assessable tumours) by randomization. The individual tumours of the control group all grew progessively.
(§7) The size of the tumours was measured in two dimensions by means of a slide gauge. The tumour volume, which correlated well with the cell count, was then used for all evaluations. The volume was calculated according to the formula "length×breadth×breadth/2" ([a×b^2 ]/2, a and b represent two diameters at right angles).
(§8) The values of the relative tumour volume (RTV) were calculated for each individual tumour by dividing the tumour size on day X with the tumour size on day 0 (at the time of randomization). The mean values of the RTV were then used for the further evaluation.
(§9) The inhibition of the increase of the tumour volume (tumour volume of the test group/control group, T/C, in per cent) was the final measured value.
(§10) The administration of the compounds was carried out intraperitoneally (i.p.) on day 1, 2 and 3 after randomization.

[5] = test system: large-cell lung carcinoma LXFL 529; assay: as above; parameters: species or system human tumour in athymic nude mice (NMRI nu/nu); conditions: for Relative body weight on day 7 / Relative tumour volume on day 14 / Survival time: i.p. day 1, 2, 3; for Relative body weight on day 7: control 102; for Relative tumour volume on day 14: control 691; for Survival time: each of five mice
Procedure: as §4, §5, §6, §7, §8, §9, §10

[6] = test system: Bone marrow cells; assay: Haematopoietic activity: bone marrow stem cell colony formation; assay type: cell-based, mice
Procedure: 2. Haematopoietic Activity of Glycoconjugates in Comparison with the Underlying Active Compound
Bone marrow cells are washed out of mice femurs. 10^5 cells are incubated at 37° C. and 7% CO2 in McCoy 5A medium (0.3% agar) together with recombinant murine GM-CSF (Genzyme; stem cell colony formation) and the substances (10^-4 to 100 μg/ml). 7 days later, the colonies ([…]) and clusters (17-50 cells) are counted.
As shown in Tab. 2 with reference to Example 2.1, the glycoconjugates investigated show, compared with the underlying active compound, an inhibition of the bone marrow stem cell proliferation which is reduced approximately by the factor 100.

SMILES | IC50 [1] [pM] | IC50 [2] [pM] | IC50 [3] [pM] | other results
CCC1(O)C(=O)OCc2c1cc1n(c2=O)Cc2c-1nc1cc3c(cc1c2CN1CCN(C(=O)[C@H](C)NC(=O)[C@H](CCCCNC(=S)Nc2ccc(O[C@H]4O[C@@H](C)[C@@H](O)[C@@H](OC)[C@@H]4O)cc2)NC(=S)Nc2ccc(O[C@H]4O[C@@H](C)[C@@H](O)[C@@H](OC)[C@@H]4O)cc2)CC1)OCCO3 (mixture of isomers) [Example 3.1] | 60 | 500 | 80 | 
CCC1(O)C(=O)OCc2c1cc1n(c2=O)Cc2c-1nc1cc3c(cc1c2CN1CCN(C(=O)[C@H](C)NC(=O)[C@H](CCCCN)NC(=S)Nc2ccc(O[C@H]4O[C@@H](C)[C@@H](O)[C@@H](OCC(=O)O)[C@@H]4O)cc2)CC1)OCCO3 (mixture of isomers) [Example 3.3, 10,11-(Ethylenedioxy)-7-{1-[N^α -(O-(3-O-carboxymethyl-β-L-fucopyranosyl)-4-hydroxy-phenylaminothiocarbonyl]-L-lysyl-L-alanyl]-piperazin-4-yl-methyl}-20(R/S)-camptothecin, hydrochloride] | 100 |  | 250 | 
CC[C@@]1(O)C(=O)OCc2c1cc1n(c2=O)Cc2c-1nc1ccccc1c2COC(=O)[C@H](C)NC(=O)[C@H](CCCCNC(=S)Nc1ccc(O[C@H]2O[C@@H](C)[C@@H](O)[C@@H](OC)[C@@H]2O)cc1)NC(=S)Nc1ccc(O[C@H]2O[C@@H](C)[C@@H](O)[C@@H](OC)[C@@H]2O)cc1 [Example 1.1, 7-{N^α,N^ε -bis-[O-(3-O-Methyl-β-L-fucopyranosyl)-4-hydroxy-phenylaminothiocarbonyl]-L-lysyl-L-alanyloxymethyl}-camptothecin] | 25 | 180 | 15 | MTD [4]: 12.5 mg/kg/day; Relative body weight on day 7 ([5]; 3.125 mg/kg/day): 93 % of day 0; Relative tumour volume on day 14 ([5]; 3.125 mg/kg/day): 0.1 % of day 0; Survival time ([5]; 3.125 mg/kg/day): > 21 days; Relative body weight on day 7 ([5]; 6.25 mg/kg/day): 93 % of day 0; Relative tumour volume on day 14 ([5]; 6.25 mg/kg/day): 0.1 % of day 0; Survival time ([5]; 6.25 mg/kg/day): > 21 days; Relative body weight on day 7 ([5]; 12.5 mg/kg/day (MTD)): 72 % of day 0; Relative tumour volume on day 14 ([5]; 12.5 mg/kg/day (MTD)): 0.1 % of day 0; Survival time ([5]; 12.5 mg/kg/day (MTD)): > 21 days; therapeutic efficacy (remission of the tumour) ([5]; at MTD, 1/2 MTD and 1/4 MTD): complete remission of the tumour
CC[C@@]1(O)C(=O)OCc2c1cc1n(c2=O)Cc2c-1nc1ccccc1c2COC(=O)[C@@H](NC(=O)[C@H](CCCCN)NC(=S)Nc1ccc(O[C@H]2O[C@@H](C)[C@@H](O)[C@@H](OCC(=O)O)[C@@H]2O)cc1)C(C)C [Example 1.3, 7-{N^α -[O-(3-O-Carboxymethyl-β-L-fucopyranosyl)-4-hydroxy-phenylamino-thiocarbonyl]-L-lysyl-L-valyloxymethyl}-camptothecin, hydrochloride] | 30 |  | 40 | 
CC[C@@]1(O)C(=O)OCc2c1cc1n(c2=O)Cc2c-1nc1ccccc1c2COC(=O)[C@@H](NC(=O)[C@H](CCCCN)NC(=S)Nc1ccc(O[C@H]2O[C@@H](C)[C@@H](O)[C@@H](OC)[C@@H]2O)cc1)C(C)C [Example 1.4, 7-{N^α -[O-(3-O-Methyl-β-L-fucopyranosyl)-4-hydroxy-phenylamino-thiocarbonyl)-L-lysyl-L-valyoxymethyl}-camptothecin, Hydrochloride] | 40 | 200 | 30 | 
CC[C@@]1(O)C(=O)OCc2c1cc1n(c2=O)Cc2cc3c(NC(=O)[C@H](C)NC(=O)[C@H](CCCCNC(=S)Nc4ccc(O[C@H]5O[C@@H](C)[C@@H](O)[C@@H](OC)[C@@H]5O)cc4)NC(=S)Nc4ccc(O[C@H]5O[C@@H](C)[C@@H](O)[C@@H](OC)[C@@H]5O)cc4)cccc3nc2-1 [Example 2.1, 9-{N^α,N^ε -bis-[O-(3-O-Methyl-β-L-fucopyranosyl)-4-hydroxy-phenylamino-thiocarbonyl]-L-lysyl-L-alanyl-amino}-camptothecin] | 60 | 2000 | 200 | reduction of inhibition of bone marrow stem cell proliferation compared with the underlying active compound (factor) ([6]; glycoconjugate vs underlying active compound (2.1.a)): ~100; IC50 (inhibition of bone marrow stem cell proliferation) ([6]; mouse bone marrow cells with GM-CSF, 7 days): 170 ng/mL
CC[C@@]1(O)C(=O)OCc2c1cc1n(c2=O)Cc2cc3c(N)cccc3nc2-1 [Example 2.1.a, 9-Amino-camptothecin, reference compound] |  |  |  | IC50 ([6]; Bone marrow cell, 168 h, mouse bone marrow cells with GM-CSF, 7 days, read-out: IC50 (inhibition of bone marrow stem cell proliferation)): 1.6 ng/mL (≈ 4.4 nM)
